Literature values in US7419990B2, “Piperidine derivatives as melanocortin-4 receptor agonists” (Merck & Co., Inc., priority 2003, dated 2008).

Legend:
[1] = system: psychogenic erectile dysfunction
[2] = system: erectile dysfunction; conditions: for duration of effect / onset of action: after an oral dose; for share of patients with adequate response: oral

Row | Compound | duration of action ([1]; in vivo) | time to onset of erection ([1]; in vivo) | response rate ([1]; injected intramuscularly or subcutaneously) | absorption into the systemic circulation ([1]; oral route) | duration of effect [2] | onset of action [2] | share of patients with adequate response [2]
1 | Ac-Nle-c[Asp-His-DPhe-Arg-Trp-Lys]-NH2 [MT-II] | approximately 2.5 hours | 10 to 20 min | 75% | not absorbed into the systemic circulation | – | – | –
2 | CCCc1nn(C)c2c(=O)[nH]c(-c3cc(S(=O)(=O)N4CCN(C)CC4)ccc3OCC)nc12 [sildenafil] | – | – | – | – | about 4 hours | 30 to 60 min | about 70%
3 | Cc1ccc(N(CC2=NCCN2)c2cccc(O)c2)cc1 [phentolamine] | – | – | – | – | 2 h | 5 to 30 min | 35-40%
